Source: patent US8163909B2, “Substituted hydroxyethyl amine compounds as beta-secretase modulators and methods of use” (Amgen Inc., priority 2007, dated 2012)
Like-named read-outs stand apart in the source and are kept apart here.

Legend:
[1] = molecular target: Beta Secretase enzyme (BACE) (Homo sapiens, UniProt P56817); assay: In vitro enzymatic BACE FRET (fluorescence resonance energy transfer) assay; assay type: biochemical;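 also: fluorescence read after 1 h with 50 nM quenched peptide substrate spanning the BACE cleavage site, in pH 4.2 acetate buffer containing 10% DMSO and nonionic detergent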
[2] = test system: Aβ40 in conditioned medium of cells stably expressing Amyloid Precursor Protein (APP); assay: In vitro BACE cell-based assay (Aβ40 in conditioned medium, sandwich ELISA);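 also: compounds added as a dilution series, secreted peptide quantified by europium time-resolved fluorescence readout, potency fitted from percent of control versus compound concentration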
[3] = BACE enzyme FRET assay, read-out: BACE1 FRET assay (IC50)
[4] = Homo sapiens, HEK293, HEK cells, cell-based assay, read-out: HEK cell assay (IC50)
[5] = BACE enzyme assay, read-out: BACE1 FRET assay (IC50)
[6] = Table 1, read-out: BACE1 FRET assay
[7] = Homo sapiens, HEK293, Table 1, HEK cells, read-out: HEK cell assay
[8] = BACE enzyme assay, IC50's in uM, read-out: BACE1 FRET assay

Sequence of Beta Secretase enzyme (BACE) (P56817 46-501): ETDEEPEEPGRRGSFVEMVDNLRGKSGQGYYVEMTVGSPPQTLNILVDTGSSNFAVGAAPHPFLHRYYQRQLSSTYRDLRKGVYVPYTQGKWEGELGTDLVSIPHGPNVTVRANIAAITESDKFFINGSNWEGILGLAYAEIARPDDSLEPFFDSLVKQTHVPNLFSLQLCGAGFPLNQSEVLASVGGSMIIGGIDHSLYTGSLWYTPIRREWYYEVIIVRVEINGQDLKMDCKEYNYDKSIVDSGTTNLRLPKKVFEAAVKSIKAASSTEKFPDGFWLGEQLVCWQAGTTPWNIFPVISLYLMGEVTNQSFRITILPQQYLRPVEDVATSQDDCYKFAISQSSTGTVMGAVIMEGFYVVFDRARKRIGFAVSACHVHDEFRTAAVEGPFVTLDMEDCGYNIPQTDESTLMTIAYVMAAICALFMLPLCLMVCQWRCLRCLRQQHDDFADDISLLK

Row | Compound | IC50 [1, 3] | IC50 [2, 4] | IC50 [1, 5] | further results
1 | CC(=O)N[C@@H](Cc1cc(F)cc(F)c1)[C@H](O)CN[C@H]1CC2(CCC2)Oc2c(F)cc(CC(C)(C)C)cc21 [compound 224] | 0.00467 µM | 0.0193 µM |  | 
2 | CO[C@H](C)C(=O)N[C@@H](Cc1cc(F)cc(F)c1)[C@H](O)CN[C@H]1CC2(CCC2)Oc2ncc(CC(C)(C)C(F)F)cc21 [compound 228] | 0.00615 µM | 0.00756 µM |  | 
3 | COc1cc(C[C@H](NC(=O)C(F)(F)F)[C@H](O)CN[C@H]2CC3(CCC3)Oc3ncc(CC(C)(C)C)cc32)ccc1F [compound 80] |  | 0.125 µM | 0.0123 µM | 
4 | CC(=O)N[C@@H](Cc1ccc2c(c1)OCO2)[C@H](O)CN[C@H]1CC2(CCC2)Oc2ncc(C[C@H](C)C(F)(F)F)cc21 [compound 320] |  |  |  | IC50 [1, 6]: 0.155 µM; IC50 [2, 7]: 0.12 µM
5 | CNc1nc(CC(C)(C)C)cc2c1OC1(CCC1)C[C@@H]2N(C)C[C@@H](O)[C@H](Cc1ccc(F)cc1)NC(=O)[C@@H](C)OC [compound 138] |  | 0.162 µM | 0.178 µM | 
6 | COCC(=O)N[C@@H](Cc1ccc(F)cc1)[C@H](O)CN[C@H]1CC2(CCC2)Oc2c(-c3ccncc3)cc(CC(C)(C)F)cc21 [compound 538] |  |  |  | IC50 ([1]; BACE enzyme assay, read-out: BACE1 FRET assay): 0.047 µM; IC50 ([2]; Homo sapiens, HEK293, HEK cells, read-out: HEK cell assay): 0.043 µM
7 | C[C@H](F)C(=O)N[C@@H](Cc1ccc2c(c1)OCO2)[C@H](O)CN[C@H]1CC2(CCC2)Oc2ncc(CC(C)(C)C)cc21 [Example 483] |  |  |  | IC50 ([1]; Table 2, read-out: BACE1 FRET assay): 0.018 µM; IC50 ([2]; Homo sapiens, HEK293, Table 2, HEK cells, read-out: HEK cell assay): 0.049 µM
8 | CC(=O)N[C@@H](Cc1cccc(F)c1)[C@H](O)CN[C@H]1CC2(CCC2)Oc2c(F)cc(CC(C)(C)C)cc21 [compound 220] | 0.00405 µM | 0.0116 µM |  | 
9 | COCC(=O)N[C@@H](Cc1ccc2c(c1)OCO2)[C@H](O)CN[C@H]1CC2(CCC2)Oc2ncc(C[C@@H](C)C(F)(F)F)cc21 [compound 341] |  |  |  | IC50 [1, 6]: 0.0595 µM; IC50 [2, 7]: 0.138 µM
10 | CC(=O)N[C@@H](Cc1ccccc1)[C@H](O)CN[C@H]1CC2(CCC2)Oc2ncc(CC3(C(F)(F)F)CC3)cc21 [compound 318] |  |  |  | IC50 [1, 6]: 0.0347 µM; IC50 [2, 7]: 0.085 µM
11 | CC(=O)N[C@@H](Cc1ccc(F)cc1)[C@H](O)CN[C@@H]1C[C@]2(CC[C@H]2O)Oc2ncc(CC(C)(C)C)cc21 [compound 115] |  | 5.5 µM | 6.88 µM | 
12 | COCC(=O)N[C@@H](Cc1ccc(F)cc1)[C@H](O)CN[C@H]1CC2(CCC2)Oc2c(F)cc(CC(C)(C)C)cc21 [compound 229] | 0.00819 µM | 0.0856 µM |  | 
13 | CC(=O)N[C@@H](Cc1ccccc1)[C@H](O)CN[C@H]1CC2(CCC2)Oc2c1cc(CC(C)(C)C)nc2N1CCC1 [compound 128] |  | 0.016 µM | 0.0332 µM | 
14 | COCC(=O)N[C@@H](Cc1cc(F)cc(F)c1)[C@H](O)CN[C@H]1CC2(CCC2)Oc2c(-c3ccncc3)cc(CC(C)(C)F)cc21 [compound 579] |  |  |  | IC50 ([1]; read-out: BACE1 FRET assay (IC50)): 0.014 µM; IC50 ([2]; Homo sapiens, HEK293, HEK cells, read-out: HEK cell assay (IC50)): 0.005 µM
15 | CC(=O)N[C@@H](Cc1ccc(F)cc1)[C@H](O)CN[C@H]1CC2(CCC2)Oc2ncc(NC(=O)C(C)(C)C)cc21 [compound 84] |  | > 10 µM | 4.87 µM | 
16 | COCC(=O)N[C@@H](Cc1cc(Br)c2c(c1)OCO2)[C@H](O)CN[C@H]1CC2(CCC2)Oc2ncc(CC(C)(C)F)cc21 [compound 211] | 0.423 µM | 0.312 µM |  | 
17 | CO[C@H](C)C(=O)N[C@@H](Cc1ccc(F)cc1)[C@H](O)CN[C@H]1CC2(CCC2)Oc2ncc([C@H](F)C(C)(C)C)cc21 [compound 186] | 0.00776 µM | 0.0265 µM |  | 
18 | COCC(=O)N[C@@H](Cc1cccc(F)c1)[C@H](O)CN[C@H]1CC2(CCC2)Oc2ncc(C[C@@H](C)C(F)(F)F)cc21 [compound 326] |  |  |  | IC50 [1, 6]: 0.00777 µM; IC50 [2, 7]: 0.0271 µM
19 | COCC(=O)N[C@@H](Cc1ccc2c(c1)OC(F)(F)O2)[C@H](O)CN[C@H]1CC2(CCC2)Oc2ncc(CC(C)(C)C)cc21 [compound 291] | 0.0414 µM | 0.382 µM |  | 
20 | C#CCCC(=O)N[C@@H](Cc1ccc2c(c1)OCO2)[C@H](O)CN[C@H]1CC2(CCC2)Oc2ncc(CC(C)(C)C)cc21 [compound 843] |  |  |  | IC50 [1, 8]: 0.044 µM; IC50 ([2]; Homo sapiens, HEK293, HEK cell-based assay, IC50's in uM, read-out: HEK cell assay): 0.065 µM
21 | CC(=O)N[C@@H](Cc1ccc(F)cc1)[C@H](O)CN[C@H]1CC2(CCC2)Oc2ncc(CC(C)(F)F)cc21 [compound 274] | 0.0297 µM | 0.0727 µM |  | 
22 | CC(=O)N[C@@H](Cc1ccc(F)cc1)[C@H](O)CN[C@H]1C[C@@]2(CC[C@@H]2O)Oc2ncc(CC(C)(C)C)cc21 [compound 114] |  | 0.909 µM | 1.58 µM | 
23 | COCC(=O)NC(Cc1ccc(F)c(F)c1)C(O)CNC1CC2(CC(O)C2)Oc2ncc(CC(C)(C)C)cc21 [compound 233, N-((1S,2R)-1-((3,4-difluorophenyl)methyl)-3-(((1s,3S,4′S)-6′-(2,2-dimethylpropyl)-3-hydroxy-3′,4′-dihydrospiro[cyclobutane-1,2′-pyrano[2,3-b]pyridin]-4′-yl)amino)-2-hydroxypropyl)-2-(methyloxy)acetamide] | 0.00724 µM | 0.00733 µM |  | 
24 | CC(=O)NC(Cc1cccc(F)c1)C(O)CNC1CC2(CC(O)C2)Oc2ncc(CC(C)(C)C)cc21 [compound 231, N-((1S,2R)-3-(((1s,3S,4′S)-6′-(2,2-dimethylpropyl)-3-hydroxy-3′,4′-dihydrospiro[cyclobutane-1,2′-pyrano[2,3-b]pyridin]-4′-yl)amino)-1-((3-fluorophenyl)methyl)-2-hydroxypropyl)acetamide] | 0.00404 µM | 0.00304 µM |  | 
25 | COC(OC)C(=O)N[C@@H](Cc1cccc(C(N)=O)c1)[C@H](O)CN[C@H]1CC2(CCC2)Oc2ncc(CC(C)(C)F)cc21 [compound 864] |  |  |  | IC50 [1, 8]: 0.04 µM; IC50 ([2]; Homo sapiens, HEK293, cell-based assay, HEK cells, IC50's in uM, read-out: HEK cell assay): 0.117 µM

Continued, in another order:

Row | IC50 [1, 3] | IC50 [2, 4] | IC50 [1, 5] | Compound | further results
26 | 0.00677 µM | 0.0132 µM |  | CC(=O)NC(Cc1ccc2c(c1)OCO2)C(O)CNC1CC2(CC(O)C2)Oc2ncc(CC(C)C)cc21 [compound 247, N-((1S,2R)-1-(1,3-benzodioxol-5-ylmethyl)-2-hydroxy-3-(((1s,3S,4′S)-3-hydroxy-6′-(2-methylpropyl)-3′,4′-dihydrospiro[cyclobutane-1,2′-pyrano[2,3-b]pyridin]-4′-yl)amino)propyl)acetamide] | 
27 | 0.016 µM | 0.0249 µM |  | COc1cc(C[C@H](NC(C)=O)[C@H](O)CN[C@H]2CC3(CCC3)Oc3ncc(CC(C)(C)C(F)F)cc32)ccc1Cl [compound 216] | 
28 |  | 0.007 µM | 0.00232 µM | CC(=O)N[C@@H](Cc1ccccc1)[C@H](O)CN[C@H]1CC2(CCC2)Oc2ncc(CC(C)(C)CF)cc21 [compound 180] | 
29 |  | 0.00763 µM | 0.00449 µM | COc1cc(C[C@H](NC(C)=O)[C@H](O)CN[C@H]2CC3(CCC3)Oc3ncc(CC(C)(C)C)cc32)ccc1F [compound 78] | 
30 |  | 0.0091 µM | 0.0484 µM | CNc1nc(CC(C)(C)C)cc2c1OC1(CCC1)C[C@@H]2NC[C@@H](O)[C@H](Cc1ccc2c(c1)OCO2)NC(C)=O [compound 126] | 
31 |  |  | 0.54 µM | CC(C)(C)Cc1cnc2c(c1)[C@@H](NC[C@@H](O)[C@H](Cc1ccc3c(c1)OCO3)NC(=O)C(C)(Cl)Cl)CC1(CCC1)O2 [compound 98] | IC50 ([2]; HEK cells, cell-based assay, read-out: HEK cell assay (IC50)): 0.767 µM
32 |  | 0.0175 µM | 0.00839 µM | CC(=O)N[C@@H](Cc1ccc2c(c1)OCO2)[C@H](O)CN[C@H]1CC2(CCC2)Oc2ncc(CC(C)(C)CF)cc21 [compound 178] | 
